The results in this text go back to patent publication US20150344540A1, “NOVEL GLP-1 RECEPTOR AGONISTS WITH CHOLESTEROL EFFLUX ACTIVITY” (NOVO NORDISK A/S, priority 2012, published 2015).

Each structure is given as a SMILES string. Where two headings read alike, the source gives them in different places. Where a SMILES comes first, the peptide text is derived from it. [ ]: non-standard residue; d: D form. Aib = CC(C)(N)C(=O)O

For experiment [1], the target named is human GLP-1 receptor (Homo sapiens, UniProt P43220). Nature of the experiment: Functional GLP-1 receptor assay, in vitro potency (CRE luciferase; whole cells). Format: cell-based. Conditions: BHK cells expressing human GLP-1 receptor.
human GLP-1 receptor, sequence (P43220 24-463): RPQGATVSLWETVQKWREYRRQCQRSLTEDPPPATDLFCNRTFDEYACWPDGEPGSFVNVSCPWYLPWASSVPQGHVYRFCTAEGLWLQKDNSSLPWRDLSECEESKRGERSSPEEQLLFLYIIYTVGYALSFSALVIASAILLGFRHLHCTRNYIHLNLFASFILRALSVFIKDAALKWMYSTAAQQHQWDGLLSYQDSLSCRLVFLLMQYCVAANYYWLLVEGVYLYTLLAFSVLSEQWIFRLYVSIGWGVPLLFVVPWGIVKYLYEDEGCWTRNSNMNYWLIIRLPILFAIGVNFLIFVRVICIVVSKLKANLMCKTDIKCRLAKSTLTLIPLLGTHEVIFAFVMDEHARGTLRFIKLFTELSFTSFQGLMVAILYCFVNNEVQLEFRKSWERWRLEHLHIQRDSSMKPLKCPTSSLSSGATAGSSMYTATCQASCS
The test system of experiment [2] is Mouse monocyte/macrophage cell line, RAW 264.7. Nature of the experiment: Cholesterol efflux assay (3H-cholesterol, macrophage cell line). The format is cell-based. Conditions: RAW 264.7, 4 hrs incubation, 0.1% human serum albumin; for 4 h Cholesterol Efflux Emax: ABCA1-mediated efflux.
[3] abbreviates: 0% HSA, read-out: GLP1R CRE luc 0% HSA EC50 Mean Value.
Setting [4] is: GLP1R CRE luc 1% HSA EC50 Mean Value, 1% HSA.

For orientation: EC50 means the concentration giving half of the maximal effect. `CC[C@H](C)[C@H](NC(=O)[C@H](Cc1ccccc1)NC(=O)[C@H](CCC(=O)O)NC(=O)[C@H](CCCNC(=N)N)NC(=O)[C@@H](NC(=O)[C@H](C)NC(=O)[C@H](CCC(=O)O)NC(=O)CNC(=O)[C@H](CCC(=O)O)NC(=O)[C@H](CC(C)C)NC(=O)[C@H](Cc1ccc(O)cc1)NC(=O)[C@H](CO)NC(=O)[C@H](CO)NC(=O)[C@@H](NC(=O)[C@H](CC(=O)O)NC(=O)[C@H](CO)NC(=O)[C@@H](NC(=O)[C@H](Cc1ccccc1)NC(=O)[C@@H](NC(=O)CNC(=O)[C@H](CCC(=O)O)NC(=O)C(C)(C)NC(=O)[C@@H](N)Cc1c[nH]cn1)[C@@H](C)O)[C@@H](C)O)C(C)C)C(C)C)C(=O)N[C@@H](C)C(=O)N[C@@H](Cc1c[nH]c2ccccc12)C(=O)N[C@@H](CC(C)C)C(=O)N[C@H](C(=O)N[C@@H](CCC(=O)O)C(=O)N[C@@H](CCCCN)C(=O)NC(C)(C)C(=O)N[C@@H](CCCCN)C(=O)N[C@@H](CCC(=O)O)C(=O)N[C@@H](Cc1ccccc1)C(=O)N[C@@H](CC(C)C)C(N)=O)C(C)C` [Compound 81] (H-H[Aib]EGTFTSDVSSYLEGEAVREFIAWLVEK[Aib]KEFL-NH2): the concentration for a half-maximal effect (EC50) in experiment [1] (setting [3]) is 0.076 nM; in experiment [1] (setting [4]), 0.028 nM. In experiment [2], the “4 h Cholesterol Efflux Emax” value stood at 112%.

Take `CC[C@H](C)[C@H](NC(=O)[C@H](Cc1ccccc1)NC(=O)[C@H](CCC(=O)O)NC(=O)[C@H](CCCCN)NC(=O)[C@@H](NC(=O)[C@H](C)NC(=O)[C@H](CCC(=O)O)NC(=O)CNC(=O)[C@H](CCC(=O)O)NC(=O)[C@H](CC(C)C)NC(=O)[C@H](Cc1ccc(O)cc1)NC(=O)[C@H](CO)NC(=O)[C@H](CO)NC(=O)[C@@H](NC(=O)[C@H](CC(=O)O)NC(=O)[C@H](CO)NC(=O)[C@@H](NC(=O)[C@H](Cc1ccccc1)NC(=O)[C@@H](NC(=O)CNC(=O)[C@H](CCC(=O)O)NC(=O)C(C)(C)NC(=O)[C@@H](N)Cc1c[nH]cn1)[C@@H](C)O)[C@@H](C)O)C(C)C)C(C)C)C(=O)N[C@@H](C)C(=O)N[C@@H](Cc1c[nH]c2ccccc12)C(=O)N[C@@H](CC(C)C)C(=O)N[C@H](C(=O)N[C@@H](CCC(=O)O)C(=O)N[C@@H](CCCCN)C(=O)NC(C)(C)C(=O)N[C@@H](CCCCN)C(=O)N[C@@H](CCC(=O)O)C(N)=O)C(C)C` [Compound 63, [Aib8,Glu23,Val25,Glu34,Lys35,Aib36,Lys37]-GLP-1-(7-37)-peptidyl-Glu amide] (H-H[Aib]EGTFTSDVSSYLEGEAVKEFIAWLVEK[Aib]KE-NH2): the EC50 in experiment [1] (setting [3]) was found to be 0.014 nM; in experiment [1] (setting [4]), 0.005 nM. Besides, the “4 h Cholesterol Efflux Emax” value in experiment [2] was determined as 135%.

Turning to `CC(C)C[C@H](NC(=O)[C@H](Cc1ccccc1)NC(=O)[C@H](CCC(=O)O)NC(=O)[C@H](CCCCN)NC(=O)C(C)(C)NC(=O)[C@H](CCCCN)NC(=O)[C@H](CCC(=O)O)NC(=O)[C@H](CC(C)C)NC(=O)[C@H](CC(C)C)NC(=O)[C@H](Cc1c[nH]c2ccccc12)NC(=O)[C@H](CCC(N)=O)NC(=O)[C@@H](NC(=O)[C@H](Cc1ccccc1)NC(=O)[C@H](CCC(=O)O)NC(=O)[C@H](CCCNC(=N)N)NC(=O)[C@H](C)NC(=O)[C@H](C)NC(=O)[C@H](CCCCN)NC(=O)CNC(=O)[C@H](CC(=O)O)NC(=O)[C@H](CC(C)C)NC(=O)[C@H](Cc1ccc(O)cc1)NC(=O)[C@H](CCCCN)NC(=O)[C@H](CO)NC(=O)[C@H](Cc1ccc(O)cc1)NC(=O)[C@H](CC(=O)O)NC(=O)[C@H](CO)NC(=O)[C@@H](NC(=O)[C@H](Cc1ccccc1)NC(=O)[C@@H](NC(=O)CNC(=O)[C@H](CCC(N)=O)NC(=O)C(C)(C)NC(=O)[C@@H](N)Cc1c[nH]cn1)[C@@H](C)O)[C@@H](C)O)C(C)C)C(N)=O` [Compound 24] (H-H[Aib]QGTFTSDYSKYLDGKAAREFVQWLLEK[Aib]KEFL-NH2), the EC50 was determined as 1.63 nM in experiment [1] (setting [3]) and 0.908 nM in experiment [1] (setting [4]). The “4 h Cholesterol Efflux Emax” value in experiment [2] is 82%.

With `CC[C@H](C)[C@H](NC(=O)[C@H](Cc1ccccc1)NC(=O)[C@H](CCC(=O)O)NC(=O)[C@H](CCCNC(=N)N)NC(=O)[C@@H](NC(=O)[C@H](C)NC(=O)[C@H](CCC(=O)O)NC(=O)[C@H](CCC(=O)O)NC(=O)[C@H](CCC(=O)O)NC(=O)[C@H](CCSC)NC(=O)[C@H](CCC(N)=O)NC(=O)[C@H](CCCCN)NC(=O)[C@H](CO)NC(=O)[C@H](CC(C)C)NC(=O)[C@H](CC(=O)O)NC(=O)[C@H](CO)NC(=O)[C@@H](NC(=O)[C@H](Cc1ccccc1)NC(=O)[C@@H](NC(=O)CNC(=O)[C@H](CCC(=O)O)NC(=O)C(C)(C)NC(=O)[C@@H](N)Cc1c[nH]cn1)[C@@H](C)O)[C@@H](C)O)C(C)C)C(=O)N[C@@H](CCC(=O)O)C(=O)N[C@@H](Cc1c[nH]c2ccccc12)C(=O)N[C@@H](CC(C)C)C(=O)N[C@@H](CCCCN)C(=O)N[C@@H](CC(N)=O)C(=O)N[C@@H](CCCCN)C(=O)NC(C)(C)C(=O)N[C@@H](CC(C)C)C(=O)N[C@@H](CCC(=O)O)C(=O)N[C@@H](Cc1ccccc1)C(=O)NCC(=O)N[C@@H](CCC(=O)O)C(=O)N[C@@H](CC(C)C)C(=O)N[C@@H](CC(C)C)C(N)=O` [Compound 38, [Aib2,Glu21,Lys29,Aib30,Leu31,Glu32,Phe33,Glu35,Leu36,Leu371-Exendin-4-(1-37)-peptide amide] (H-H[Aib]EGTFTSDLSKQMEEEAVREFIEWLKNK[Aib]LEFGELL-NH2; N-terminus assumed), in experiment [1] (setting [4]), a half-maximal effect (EC50) was put at 0.012 nM. The “4 h Cholesterol Efflux Emax” value in experiment [2] is recorded as 82%.

As for `CC[C@H](C)[C@H](NC(=O)[C@H](Cc1ccccc1)NC(=O)[C@H](CCC(=O)O)NC(=O)[C@H](CCCCN)NC(=O)[C@H](C)NC(=O)[C@H](C)NC(=O)[C@H](CCC(N)=O)NC(=O)[C@H](CCC(=O)O)NC(=O)[C@H](CCC(=O)O)NC(=O)[C@H](CC(C)C)NC(=O)[C@H](Cc1ccc(O)cc1)NC(=O)[C@H](CCCCN)NC(=O)[C@H](CO)NC(=O)[C@H](Cc1ccc(O)cc1)NC(=O)[C@H](CC(=O)O)NC(=O)[C@H](CO)NC(=O)[C@@H](NC(=O)[C@H](Cc1ccccc1)NC(=O)[C@@H](NC(=O)CNC(=O)[C@H](CCC(N)=O)NC(=O)[C@H](CO)NC(=O)[C@@H](N)Cc1c[nH]cn1)[C@@H](C)O)[C@@H](C)O)C(=O)N[C@@H](C)C(=O)N[C@@H](Cc1c[nH]c2ccccc12)C(=O)N[C@@H](CC(C)C)C(=O)N[C@@H](CC(C)C)C(=O)N[C@@H](CCC(=O)O)C(=O)N[C@@H](CCCCN)C(=O)NC(C)(C)C(=O)N[C@@H](CCCCN)C(=O)N[C@@H](CCC(=O)O)C(=O)N[C@@H](Cc1ccccc1)C(=O)N[C@@H](CC(C)C)C(N)=O` [Compound 56] (H-HSQGTFTSDYSKYLEEQAAKEFIAWLLEK[Aib]KEFL-NH2; N-terminus assumed), the EC50 in experiment [1] (GLP1R CRE luc 0% HSA EC50 Mean Value, 0% HSA) was 0.118 nM; in experiment [1] (setting [4]), 0.061 nM; in experiment [2] (read-out: 4 h Cholesterol Efflux EC50, ABCA1-mediated efflux (CPT-cAMP induced minus non-induced)), 210 nM.

With `CC[C@H](C)[C@H](NC(=O)[C@H](Cc1ccccc1)NC(=O)[C@H](CC(C)C)NC(=O)[C@H](CCCCN)NC(=O)[C@@H](NC(=O)[C@H](C)NC(=O)[C@H](CCC(=O)O)NC(=O)CNC(=O)[C@H](CCC(=O)O)NC(=O)[C@H](CC(C)C)NC(=O)[C@H](Cc1ccc(O)cc1)NC(=O)[C@H](CO)NC(=O)[C@H](CO)NC(=O)[C@@H](NC(=O)[C@H](CC(=O)O)NC(=O)[C@H](CO)NC(=O)[C@@H](NC(=O)[C@H](Cc1ccccc1)NC(=O)[C@@H](NC(=O)CNC(=O)[C@H](CCC(=O)O)NC(=O)C(C)(C)NC(=O)[C@@H](N)Cc1c[nH]cn1)[C@@H](C)O)[C@@H](C)O)C(C)C)C(C)C)C(=O)N[C@@H](C)C(=O)N[C@@H](Cc1c[nH]c2ccccc12)C(=O)N[C@@H](CC(C)C)C(=O)N[C@H](C(=O)N[C@@H](CCC(=O)O)C(=O)N[C@@H](CCCCN)C(=O)NC(C)(C)C(=O)N[C@@H](CCCCN)C(=O)N[C@@H](CCC(=O)O)C(=O)N[C@@H](Cc1ccccc1)C(=O)N[C@@H](CC(C)C)C(N)=O)C(C)C` [Compound 28, [Aib8,Glu23,Val25,Leu27,Glu34,Lys35,Aib36,Lys37]-GLP-1-(7-37)-peptidyl-Glu-Phe-Leu amide] (H-H[Aib]EGTFTSDVSSYLEGEAVKLFIAWLVEK[Aib]KEFL-NH2), it took 0.104 nM to reach a half-maximal effect in experiment [1] (setting [4]) (EC50). The “4 h Cholesterol Efflux Emax” value in experiment [2] was found to be 78%.

`CC[C@H](C)[C@H](NC(=O)[C@H](Cc1ccccc1)NC(=O)[C@H](CCC(=O)O)NC(=O)[C@H](CCCNC(=N)N)NC(=O)[C@@H](NC(=O)[C@H](C)NC(=O)[C@H](CCC(=O)O)NC(=O)[C@H](CCC(=O)O)NC(=O)[C@H](CCC(=O)O)NC(=O)[C@H](CCSC)NC(=O)[C@H](CCC(N)=O)NC(=O)[C@H](CCCCN)NC(=O)[C@H](CO)NC(=O)[C@H](CC(C)C)NC(=O)[C@H](CC(=O)O)NC(=O)[C@H](CO)NC(=O)[C@@H](NC(=O)[C@H](Cc1ccccc1)NC(=O)[C@@H](NC(=O)CNC(=O)[C@H](CCC(=O)O)NC(=O)C(C)(C)NC(=O)[C@@H](N)Cc1c[nH]cn1)[C@@H](C)O)[C@@H](C)O)C(C)C)C(=O)N[C@@H](CCC(=O)O)C(=O)N[C@@H](Cc1c[nH]c2ccccc12)C(=O)N[C@@H](CC(C)C)C(=O)N[C@@H](CCCCN)C(=O)N[C@@H](CC(N)=O)C(=O)N[C@@H](CCCCN)C(=O)NC(C)(C)C(=O)N1CCC[C@H]1C(=O)N[C@@H](CCC(=O)O)C(=O)N[C@@H](Cc1ccccc1)C(=O)N[C@@H](CC(C)C)C(=O)N[C@@H](CCC(=O)O)C(=O)N[C@@H](CC(C)C)C(=O)N[C@@H](CC(C)C)C(N)=O` [Compound 35, [Aib2,Glu21,Lys29,Aib30,Glu32,Phe33,Leu34,Glu35,Leu36,Leu371-Exendin-4-(1-37)-peptide amide] (H-H[Aib]EGTFTSDLSKQMEEEAVREFIEWLKNK[Aib]PEFLELL-NH2; N-terminus assumed): in experiment [1] (setting [4]), the midpoint of the response, the EC50, lay at 0.032 nM. Moreover, the “4 h Cholesterol Efflux Emax” value in experiment [2] is listed as 48%.
